Patent US20020090380A1, “Novel formulation comprising thymol useful in the treatment of drug resistant bacterial infections” (priority 2000, published 2002)
Where two headings read alike, the source gives them in different places.

Experiments:
E. coli CA 8000 (WT) = assay type: cell-based, Escherichia coli
[1] = system: lomefloxacin resistant cells of E. coli; assay type: cell-based, Escherichia coli; conditions: 2 μg/ml
[2] = system: Lom^R mutants of Mycobacterium smegmatis; assay type: cell-based; conditions: Lom^R mutants
Nal^R mutants of E. coli = assay type: cell-based, Escherichia coli; conditions: 5 μg/ml
[3] = system: Mycobacterium smegmetis wild type; assay type: cell-based

Structure (SMILES): O=C(O)c1cn(C2CC2)c2cc(N3CCNCC3)c(F)cc2c1=O [Ciprofloxacin, ciprofloxacin]
- Growth in poison agar medium (E. coli CA 8000 (WT)): −
- Growth in poison agar medium ([1]; CAL 101): +
- Growth in poison agar medium ([1]; CAL 102): +
- Growth in poison agar medium ([1]; CAL 103): +
- Growth in poison agar medium ([1]; CAL 104): +
- Growth in poison agar medium ([1]; CAL 105): +
- Growth in poison agar medium ([1]; CAL 106): +
- Growth in poison agar medium ([1]; CAL 107): +
- Growth in poison agar medium ([1]; CAL 108): +
- resistance of the mutants [2]: resistant
- Growth in poison agar medium (Nal^R mutants of E. coli; CAN 101): −
- Growth in poison agar medium (Nal^R mutants of E. coli; CAN 102): −
- Growth in poison agar medium (Nal^R mutants of E. coli; CAN 103): −
- Growth in poison agar medium (Nal^R mutants of E. coli; CAN 104): −
- Growth in poison agar medium (Nal^R mutants of E. coli; CAN 105): −
- Growth in poison agar medium (Nal^R mutants of E. coli; CAN 106): −
- Growth in poison agar medium (Nal^R mutants of E. coli; CAN 107): −
- Growth in poison agar medium (Nal^R mutants of E. coli; CAN 108): −
- Growth in poison agar medium (Nal^R mutants of E. coli; CAN 109): −
- Growth in poison agar medium (Nal^R mutants of E. coli; CAN 110): −
- Growth in poison agar medium (Nal^R mutants of E. coli; CAN 111): −
- Growth in poison agar medium (Nal^R mutants of E. coli; CAN 112): −
- Growth in poison agar medium (Nal^R mutants of E. coli; CAN 113): −
- Growth in poison agar medium (Nal^R mutants of E. coli; CAN 114): −
- Growth in poison agar medium (Nal^R mutants of E. coli; CAN 115): −
- Growth in poison agar medium (Nal^R mutants of E. coli; CAN 116): −
- Growth in poison agar medium (Nal^R mutants of E. coli; CAN 117): −
- Growth in poison agar medium (Nal^R mutants of E. coli; CAN 118): −
- Growth in poison agar medium (Nal^R mutants of E. coli; CAN 119): −
- Growth in poison agar medium (Nal^R mutants of E. coli; CAN 120): −
- Growth in poison agar medium (Nal^R mutants of E. coli; CAN 121): −
- Growth in poison agar medium (Nal^R mutants of E. coli; CAN 122): −
- Growth in poison agar medium (Nal^R mutants of E. coli; CAN 123): −
- Growth in poison agar medium (Nal^R mutants of E. coli; CAN 124): −
- Growth in poison agar medium (Nal^R mutants of E. coli; CAN 125): −
- Growth in poison agar medium (Nal^R mutants of E. coli; CAN 126): −

Structure (SMILES): CC[n+]1c(-c2ccccc2)c2cc(N)ccc2c2ccc(N)cc21 [ethidium bromide]
- concentration at which the strain is killed [3]: 3 µg/mL
